# From patent US20060052456A1, “Kynurenine 3-hydroxylase inhibitors for the treatment of diabetes by increasing the number of islets of langerhans cells” (MERCK PATENT GMBH, priority 2003, published 2006)
# Marks after values point to notes of the source that are not given here.
# Assays:
# hepatocytes = experiment: Hepatic glucose production in vitro in isolated hepatocytes (Table IV); assay type: cell-based, Wistar rats; settings: for inhibition of hepatic glucose production in vitro (in words): isolated rat hepatocytes
# Description: The following two methods were used:
# (§1) 1) The hepatocytes are cultured for 16 to 18 hours in DMEM medium in the presence of AMP cyclase/dexamethasone at respective concentrations of 5×10^−5 M and 5×10^−7 M, with preincubation of the products at the test doses. After washing in pH 7.4 PBS buffer, the cells are incubated for three hours at 37° C. in a Krebs/AMPc/DEX buffer at the abovementioned concentrations. 0.1 μM insulin is used as reference substance. Two identical experiments are performed (Table III-1).
# (§2) After washing in pH 7.4 PBS buffer, the cells are incubated for two hours at 37° C. in a Krebs buffer free of glucose and of insulin, containing lactate/pyruvate (10/1 mM) in the presence or absence of the test compounds. 10 μM MICA (5-methoxyindole-2-carboxylic acid) is used as reference substance. Two identical experiments are performed (Table III-2).
# The protein assay is performed on the rest of the incubation medium via the Lowry method (BIO-RAD Dc protein assay, BIO-RAD 5000116).
# (§3) The results are expressed as nmoles of glucose produced per […] of proteins. The statistical test used is the t test.
# primary hepatocytes [1] = experiment: Hepatic glucose production, basal Lact/Pyr 2 hours, in primary hepatocytes (Table III-2); assay type: cell-based, Wistar rats
# Description: (§4) The hepatocytes are isolated from the liver of Wistar rats fasted for 24 hours, according to the method described in Methods Cell Biol., 13 (1975), 29-83.
# 2) The hepatocytes are cultured for 16 to 18 hours in RPMI 1640 medium free of glucose but supplemented with 1% glutamine, 100 U/mL penicillin, […] streptomycin and 7×10^−5 M hydrocortisone hemisuccinate.
# as §2
# (§5) Quantification of the glucose is performed via a calorimetric method using glucose oxidase (IL test™ Glucose, Monarch 181633-80). The protein assay is performed on the rest of the incubation medium via the Lowry method (BIO-RAD Dc protein assay, BIO-RAD 5000116).
# as §3
# N0STZ rats = experiment: Antidiabetic activity in N0STZ rats (glycaemia after oral treatment); assay type: in vivo, rat; settings: for percentage change in the glycaemia relative to D0, D4 (20 mg) / percentage change in the glycaemia relative to D0, D4 (200 mg): four days of treatment; for percentage change in the glycaemia relative to D0, D1 (20 mg) / percentage change in the glycaemia relative to D0, D1 (200 mg): one day of treatment
# Description: Study of the Antidiabetic Activity in N0STZ Rats
# The antidiabetic activity of the compounds of the formulae (I) and (II) orally was determined on an experimental model of non-insulin-dependent diabetes, induced in rats with steptozotocin.
# The model of non-insulin-dependent diabetes is obtained in the rats by means of a neonatal injection (on the day of birth) of steptozotocin.
# The diabetic rats used are eight weeks old. The animals are housed, from the day of birth to the day of the experiment, in an animal house at a regulated temperature of 21 to 22° C. and subjected to a fixed cycle of light (from 7 a.m. to 7 p.m.) and darkness (from 7 p.m. to 7 a.m.). Their food consisted of a maintenance diet, and water and food were given “ad libitum”, with the exception of fasting two hours before the tests, during which period the food is removed (post-absorptive state).
# The rats are treated orally for one (D1) or four (D4) days with the test product. Two hours after the final administration of the product and 30 minutes after anaesthetising the animals with pentobarbital sodium (Nembutal®), a 300 μL blood sample is taken from the end of the tail.
# The results presented below are expressed as a percentage change in the glycaemia on D1 and D4 (number of days of treatment) relative to D0 (before the treatment).
# primary hepatocytes [2] = experiment: Hepatic glucose production stimulated by AMPc/DEX in primary hepatocytes (Table III-1); assay type: cell-based, Wistar rats
# Description: as §4, §1, §5, §3
# [3] = tested on: perfused isolated pancreases from N0 STZ diabetic rats; experiment: Secretion of insulin and glucagon in perfused isolated pancreases from N0 STZ diabetic rats; assay type: cell-based; settings: perfused diabetic rat pancreas; absence of glucose, then 16.5 mM glucose; glucose-dependent
# Description: The results are expressed as the mean ±SEM (standard error of mean) of several experiments. The statistical test used is the Scheffé test.
# [4] = Rattus norvegicus, Hepatocyte, 10 μM
# [5] = Rattus norvegicus, Hepatocyte, 100 μM
smiles,measurement,setting,value
"O=C(C[C@@H](Cc1ccccc1)C(=O)O)c1ccc(Cl)c(Cl)c1 (racemic) [Compound j, (R,S)-2-benzyl-4-(3′,4′-dichlorophenyl)-4-oxobutanoic acid]",inhibition of hepatic glucose production,hepatocytes; 1 μM,30** %
same,inhibition of hepatic glucose production,hepatocytes; 10 μM,51** %
same,inhibition of hepatic glucose production,hepatocytes; 100 μM,65** %
same,inhibition of hepatic glucose production in vitro (in words),hepatocytes,powerful inhibitors of hepatic glucose production in vitro
"O=C(CC(Sc1ccc2ccccc2c1)C(=O)O)c1ccccc1 (stereo not shown) [Ih-1, 2-(2′-naphthylthio)-4-phenyl-4-oxobutanoic acid]",HGP % of control,primary hepatocytes [1]; 1 μM,110 % of control
same,HGP % of control,primary hepatocytes [1]; 10 μM,127 % of control
same,HGP % of control,primary hepatocytes [1]; 100 μM,75 % of control
same,"percentage change in the glycaemia relative to D0, D4 (20 mg)",N0STZ rats,−12%
same,"percentage change in the glycaemia relative to D0, D4 (200 mg)",N0STZ rats,−21%
same,"percentage change in the glycaemia relative to D0, D1 (20 mg)",N0STZ rats,7%
same,"percentage change in the glycaemia relative to D0, D1 (200 mg)",N0STZ rats,10%
same,inhibition of hepatic glucose production in vitro (in words),hepatocytes,powerful inhibitors of hepatic glucose production in vitro
same,HGP % of control,primary hepatocytes [2]; 1 μM,103 % of control
same,HGP % of control,primary hepatocytes [2]; 10 μM,83 % of control
same,HGP % of control,primary hepatocytes [2]; 100 μM,15 % of control
"O=C(CC(Sc1ccccc1)C(=O)O)c1ccccc1 (stereo not shown) [Ih-2, 2-phenylthio-4-phenyl-4-oxobutanoic acid]",melting point,,132 to 135 °C
"O=C(CC(Sc1ccc(F)cc1)C(=O)O)c1ccccc1 (stereo not shown) [Ih-3, 2-(4′-fluorophenylthio)-4-phenyl-4-oxobutanoic acid]","percentage change in the glycaemia relative to D0, D4 (20 mg)",N0STZ rats,−19%
same,"percentage change in the glycaemia relative to D0, D4 (200 mg)",N0STZ rats,−12%
same,"percentage change in the glycaemia relative to D0, D1 (20 mg)",N0STZ rats,−3%
same,"percentage change in the glycaemia relative to D0, D1 (200 mg)",N0STZ rats,7%
"O=C(CC(Sc1ccc(Cl)cc1)C(=O)O)c1ccccc1 (stereo not shown) [Ih-4, 2-(4′-chlorophenylthio)-4-phenyl-4-oxobutanoic acid]",melting point,,140 to 142 °C
"Cc1ccc(SC(CC(=O)c2ccccc2)C(=O)O)cc1 (stereo not shown) [Ih-5, 2-(4′-methylphenylthio)-4-phenyl-4-oxobutanoic acid]",melting point,,132 to 134 °C
"COc1ccc(SC(CC(=O)c2ccccc2)C(=O)O)cc1 (stereo not shown) [Ih-6, 2-(4′-methoxyphenylthio)-4-phenyl-4-oxobutanoic acid]",melting point,,116 to 118 °C
"O=C(CC(SC1CCCCC1)C(=O)O)c1ccccc1 (stereo not shown) [Ih-7, 2-cyclohexylthio-4-phenyl-4-oxobutanoic acid]",melting point,,117 °C
"O=C(CC(SCc1ccccc1)C(=O)O)c1ccccc1 (stereo not shown) [Ih-8, 2-benzylthio-4-phenyl-4-oxobutanoic acid]",melting point,,143 to 146 °C
"COc1ccc(C(=O)CC(Sc2ccccc2)C(=O)O)cc1 (stereo not shown) [Ih-17, 2-phenylthio-4-(4′-methoxyphenyl)-4-oxobutanoic acid]",melting point,,121 to 125 °C
"COc1ccc(C(=O)CC(Sc2ccc(F)cc2)C(=O)O)cc1 (stereo not shown) [Ih-18, 2-(4′-fluorophenylthio)-4-(4′-methoxyphenyl)-4-oxobutanoic acid]",melting point,,108 to 110 °C
"COc1ccc(C(=O)CC(Sc2ccc(Cl)cc2)C(=O)O)cc1 (stereo not shown) [Ih-19, 2-(4′-chlorophenylthio)-4-(4′-methoxyphenyl)-4-oxobutanoic acid]",melting point,,120 to 121 °C
"COc1ccc(C(=O)CC(Sc2ccc(C)cc2)C(=O)O)cc1 (stereo not shown) [Ih-20, 2-(4′-methylphenylthio)-4-(4′-methoxyphenyl)-4-oxobutanoic acid]",melting point,,137 to 141 °C
"COc1ccc(SC(CC(=O)c2ccc(OC)cc2)C(=O)O)cc1 (stereo not shown) [Ih-21, 2-(4′-methoxyphenylthio)-4-(4′-methoxyphenyl)-4-oxobutanoic acid]",melting point,,137 to 140 °C
"COc1ccc(C(=O)CC(SC2CCCCC2)C(=O)O)cc1 (stereo not shown) [Ih-23, 2-cyclohexylthio-4-(4′-methoxyphenyl)-4-oxobutanoic acid]",melting point,,120 to 122 °C
"COc1ccc(C(=O)CC(SCc2ccccc2)C(=O)O)cc1 (stereo not shown) [Ih-24, 2-benzylthio-4-(4′-methoxyphenyl)-4-oxobutanoic acid]",melting point,,105 to 109 °C
"O=C(CC(Sc1ccccc1)C(=O)O)c1ccc(Cl)cc1 (stereo not shown) [Ih-25, 2-phenylthio-4-(4′-chlorophenyl)-4-oxobutanoic acid]",melting point,,166 to 169 °C
"O=C(CC(Sc1ccc(F)cc1)C(=O)O)c1ccc(Cl)cc1 (stereo not shown) [Ih-26, 2-(4′-fluorophenylthio)-4-(4′-chlorophenyl)-4-oxobutanoic acid]",melting point,,140 to 141 °C
"O=C(CC(C(=O)O)c1ccc(Cl)cc1)c1ccc(Cl)cc1 (stereo not shown) [Ih-27, 2-(4′-chlorophenyl)-4-(4′-chlorophenyl)-4-oxobutanoic acid]",melting point,,154 to 156 °C
"Cc1ccc(SC(CC(=O)c2ccc(Cl)cc2)C(=O)O)cc1 (stereo not shown) [Ih-28, 2-(4′-methylphenylthio)-4-(4′-chlorophenyl)-4-oxobutanoic acid]",melting point,,151 to 153 °C
"COc1ccc(SC(CC(=O)c2ccc(Cl)cc2)C(=O)O)cc1 (stereo not shown) [Ih-29, 2-(4′-methoxyphenylthio)-4-(4′-chlorophenyl)-4-oxobutanoic acid]",melting point,,117 to 119 °C
O=C(O)c1cc(=O)c2ccccc2[nH]1 [Kynurenic acid],glucagon secretion (in words),[3],stimulates
same,insulin secretion (in words),[3],stimulates the secretion of insulin
Nc1ccccc1C(=O)CC(N)C(=O)O (stereo not shown) [Kynurenine],inhibition at 1 µM,"hepatocytes; Rattus norvegicus, Hepatocyte, 1 μM",2%
same,inhibition at 10 µM,hepatocytes; [4],4%
same,inhibition at 100 µM,hepatocytes; [5],25%
same,inhibition at 1000 µM,"hepatocytes; Rattus norvegicus, Hepatocyte, 1000 μM",78%
same,inhibition of hepatic glucose production in vitro (in words),hepatocytes,powerful inhibitors of hepatic glucose production in vitro
same,glucagon secretion (in words),[3],stimulated
same,insulin secretion (in words),[3],stimulated
"COc1ccc2[nH]c(C(=O)O)cc2c1 [MICA, 5-methoxyindole-2-carboxylic acid]",inhibition at 10 µM,hepatocytes; [4],67%
N[C@@H](Cc1c[nH]c2ccccc12)C(=O)O [Tryptophan],inhibition at 10 µM,hepatocytes; [4],12%
same,inhibition at 100 µM,hepatocytes; [5],81%
same,inhibition of hepatic glucose production in vitro (in words),hepatocytes,powerful inhibitors of hepatic glucose production in vitro
same,glucagon secretion (in words),[3],stimulates glucagon secretion in a glucose-dependent manner
same,insulin secretion (in words),[3],stimulates insulin secretion in a glucose-dependent manner
